The values that follow come from patent publication US9212189B2, “Fluorescent probes for reactive sulfur species” (THE REGENTS OF THE UNIVERSITY OF CALIFORNIA, priority 2011, dated 2015).

A short description of series [1]: Fluorescence response of 4-azido-1,8-naphthalimide to H2S. The method, then: FIG. 8. Fluorescence response of 10 μM 4-azido-1,8-naphthalimide to 100 μM H2S. Data were acquired at 25° C. in 20 mM HEPES buffered to pH 7.4 with excitation at λex=470 nm. Emission was collected between 495 and 650 nm. Time points represent 0, 15, 30, 45, and 60 min (red trace) after addition of 100 μM H2S. Reactions are not complete at these time points.

A short description of series [2]: Spectroscopic properties (absorbance, emission, quantum yield). It is filed as physicochemical. To be noted: for ε (extinction coefficient) of reaction product: at λmax; for Φ (quantum yield) of reaction product: fluorescein as standard, 20 mM HEPES pH 7.4; for λmax (absorbance) of reaction product: new absorbance band in the visible region; for λem of reaction product: product formed from 10 μM probe with 100 μM NaSH. The procedure: Millipore water was used to prepare all aqueous solutions. All spectroscopic measurements were performed in 20 mM HEPES buffer, pH 7.4. Fluorescence spectra were recorded on a Photon Technology International Quanta Master 4 L-format scanning spectrofluorometer (Lawrenceville, N.J.) equipped with an LPS-220B 75-W xenon lamp and power supply, A-1010B lamp housing with an integrated igniter, switchable 814 photon-counting/analog photomultiplier detection unit, and MD5020 motor driver. Samples for emission measurements were contained in 1-cm×0.1-cm quartz (1.5 mL volume, Starna, Atascadero, Calif.). Absorption spectra were recorded using a Varian Cary 50 spectrophotometer (Walnut Creek, Calif.).
FIG. 1. Absorbance spectra of (a) 10 μM SF1 (b) 10 μM SF2, and 10 μM of rhodamine products (c) tert-butoxycarbonyl-rhodamine 110 and (d) morpholinourea-rhodamine 110.
Quantum yields were determined using fluorescein as a standard according to a published method.^S3 For each compound and fluorescein, the absorbance spectra were measured within an absorbance range of 0.01 to 0.1. The quantum yield was calculated according to the equation: Φsample=Φstandard (Gradsample/Gradstandard)[…], where Φ is the quantum yield, Φstandard=0.95 in 0.1 M NaOH, Grad is the slope of the plot of […], and η is the refractive index of the solvent.

`[N-]=[N+]=Nc1ccc2c3c(cccc13)C(=O)NC2=O` [4-Azido-1,8-naphthalimide]: the “emission compared with SF1 and SF2” value in series [1] is “red-shifted emission”.
Regarding “morpholinourea-rhodamine 110 [Product from SF2]”, in series [2], the “ε (extinction coefficient) of reaction product” value is 75,000 M^−1cm^−1, the “Φ (quantum yield) of reaction product” value is given as 0.60, the “λmax (absorbance) of reaction product” value is 492 nm and the “λem of reaction product” value amounted to 525 nm.
With “tert-butoxycarbonyl-rhodamine 110 [Product from SF1]”, in series [2], the “ε (extinction coefficient) of reaction product” value is on record as 61,000 M^−1cm^−1, the “Φ (quantum yield) of reaction product” value amounted to 0.51, the “λmax (absorbance) of reaction product” value turned out to be 490 nm and the “λem of reaction product” value amounted to 525 nm.
